# Measured values reported in patent US12077503B2, “Substituted cyclic amides and their use as herbicides” (FMC CORPORATION, priority 2015, dated 2024).
# Key:
# Assay in all cases: Test C preemergence
# Assay type in all cases: in vivo
# [1] = test system: oilseed rape (Brassica napus); details: for Plant response rating, Oilseed Rape: scale 0 to 100, 0 no effect, 100 complete control
# Outline: (§1)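 After treatment with surfactant-containing formulations, either preemergence to seeds in loam-sand soil or postemergence to potted seedlings at 2–18 cm, plants were kept 13–15 d in a greenhouse. Observers then compared them with controls and assigned ratings, 0 signifying no effect and 100 complete control.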
# [2] = test system: ryegrass, Italian (Italian ryegrass, Lolium multiflorum); details: for Plant response rating, Ryegrass, Italian: scale 0 to 100, 0 no effect, 100 complete control
# Outline: as §1
# [3] = test system: Galium (catchweed bedstraw, Galium aparine); details: for Plant response rating, Galium: scale 0 to 100, 0 no effect, 100 complete control
# Outline: as §1
# [4] = test system: wheat (winter wheat, Triticum aestivum); details: for Plant response rating, Wheat: scale 0 to 100, 0 no effect, 100 complete control
# Outline: as §1
# [5] = test system: barnyardgrass (Echinochloa crus-galli); details: for Plant response rating, Barnyardgrass: scale 0 to 100, 0 no effect, 100 complete control
# Outline: as §1
# [6] = test system: velvetleaf (Abutilon theophrasti); details: for Plant response rating, Velvetleaf: scale 0 to 100, 0 no effect, 100 complete control
# Outline: as §1
# [7] = test system: nutsedge, yellow (yellow nutsedge, Cyperus esculentus); details: for Plant response rating, Nutsedge, Yellow: scale 0 to 100, 0 no effect, 100 complete control
# Outline: as §1
# [8] = test system: crabgrass, large (large crabgrass, Digitaria sanguinalis); details: for Plant response rating, Crabgrass, Large: scale 0 to 100, 0 no effect, 100 complete control
# Outline: as §1
# [9] = test system: blackgrass (Alopecurus myosuroides); details: for Plant response rating, Blackgrass: scale 0 to 100, 0 no effect, 100 complete control
# Outline: as §1
# [10] = test system: johnsongrass (Sorghum halepense); details: for Plant response rating, Johnsongrass: scale 0 to 100, 0 no effect, 100 complete control
# Outline: as §1
# [11] = test system: foxtail, giant (giant foxtail, Setaria faberii); details: for Plant response rating, Foxtail, Giant: scale 0 to 100, 0 no effect, 100 complete control
# Outline: as §1
# [12] = test system: ragweed (common ragweed, Ambrosia elatior); details: for Plant response rating, Ragweed: scale 0 to 100, 0 no effect, 100 complete control
# Outline: as §1
# [13] = test system: morningglory (Ipomoea coccinea); details: for Plant response rating, Morningglory: scale 0 to 100, 0 no effect, 100 complete control
# Outline: as §1
# [14] = test system: lambsquarters (Chenopodium album); details: for Plant response rating, Lambsquarters: scale 0 to 100, 0 no effect, 100 complete control
# Outline: as §1
# [15] = test system: pigweed (Amaranthus retroflexus); details: for Plant response rating, Pigweed: scale 0 to 100, 0 no effect, 100 complete control
# Outline: as §1
# [16] = test system: corn (Zea mays); details: for Plant response rating, Corn: scale 0 to 100, 0 no effect, 100 complete control
# Outline: as §1
# [17] = test system: soybean (Glycine max); details: for Plant response rating, Soybean: scale 0 to 100, 0 no effect, 100 complete control
# Outline: as §1
# [18] = 31 g ai/ha, 0 is no effect, 100 is complete control
smiles,measurement,setting,value
CN1CC(c2cccc(OC(F)F)c2)C(C(=O)Nc2cccc(F)c2F)C1=O (centres unmarked) [Compound 616],"Plant response rating (scale of 0 to 100), Oilseed Rape",[1]; [18],60
same,"Plant response rating, Oilseed Rape",[1]; 62 g ai/ha,60
same,"Plant response rating, Oilseed Rape",[1]; 125 g ai/ha,70
same,"Plant response rating, Oilseed Rape",[1]; 250 g ai/ha,85
same,"Plant response rating (scale of 0 to 100), Ryegrass, Italian",[2]; [18],30
same,"Plant response rating, Ryegrass, Italian",[2]; 62 g ai/ha,35
same,"Plant response rating, Ryegrass, Italian",[2]; 125 g ai/ha,90
same,"Plant response rating, Ryegrass, Italian",[2]; 250 g ai/ha,85
same,"Plant response rating (scale of 0 to 100), Galium",[3]; [18],90
same,"Plant response rating, Galium",[3]; 62 g ai/ha,85
same,"Plant response rating, Galium",[3]; 125 g ai/ha,85
same,"Plant response rating, Galium",[3]; 250 g ai/ha,90
same,"Plant response rating (scale of 0 to 100), Wheat",[4]; [18],0
same,"Plant response rating, Wheat",[4]; 62 g ai/ha,10
same,"Plant response rating, Wheat",[4]; 125 g ai/ha,50
same,"Plant response rating, Wheat",[4]; 250 g ai/ha,85
same,"Plant response rating (scale of 0 to 100), Barnyardgrass",[5]; [18],90
same,"Plant response rating, Barnyardgrass",[5]; 62 g ai/ha,90
same,"Plant response rating, Barnyardgrass",[5]; 125 g ai/ha,95
same,"Plant response rating, Barnyardgrass",[5]; 250 g ai/ha,95
same,"Plant response rating (scale of 0 to 100), Velvetleaf",[6]; [18],0
same,"Plant response rating, Velvetleaf",[6]; 62 g ai/ha,10
same,"Plant response rating, Velvetleaf",[6]; 125 g ai/ha,40
same,"Plant response rating, Velvetleaf",[6]; 250 g ai/ha,35
same,"Plant response rating (scale of 0 to 100), Nutsedge, Yellow",[7]; [18],0
same,"Plant response rating, Nutsedge, Yellow",[7]; 62 g ai/ha,0
same,"Plant response rating, Nutsedge, Yellow",[7]; 125 g ai/ha,0
same,"Plant response rating, Nutsedge, Yellow",[7]; 250 g ai/ha,0
same,"Plant response rating (scale of 0 to 100), Crabgrass, Large",[8]; [18],90
same,"Plant response rating, Crabgrass, Large",[8]; 62 g ai/ha,90
same,"Plant response rating, Crabgrass, Large",[8]; 125 g ai/ha,95
same,"Plant response rating, Crabgrass, Large",[8]; 250 g ai/ha,95
same,"Plant response rating (scale of 0 to 100), Blackgrass",[9]; [18],30
same,"Plant response rating, Blackgrass",[9]; 62 g ai/ha,45
same,"Plant response rating, Blackgrass",[9]; 125 g ai/ha,80
same,"Plant response rating, Blackgrass",[9]; 250 g ai/ha,80
same,"Plant response rating (scale of 0 to 100), Johnsongrass",[10]; [18],60
same,"Plant response rating, Johnsongrass",[10]; 62 g ai/ha,85
same,"Plant response rating, Johnsongrass",[10]; 125 g ai/ha,75
same,"Plant response rating, Johnsongrass",[10]; 250 g ai/ha,90
same,"Plant response rating (scale of 0 to 100), Foxtail, Giant",[11]; [18],90
same,"Plant response rating, Foxtail, Giant",[11]; 62 g ai/ha,90
same,"Plant response rating, Foxtail, Giant",[11]; 125 g ai/ha,90
same,"Plant response rating, Foxtail, Giant",[11]; 250 g ai/ha,95
same,"Plant response rating (scale of 0 to 100), Ragweed",[12]; [18],25
same,"Plant response rating, Ragweed",[12]; 62 g ai/ha,25
same,"Plant response rating, Ragweed",[12]; 125 g ai/ha,50
same,"Plant response rating, Ragweed",[12]; 250 g ai/ha,75
same,"Plant response rating (scale of 0 to 100), Morningglory",[13]; [18],0
same,"Plant response rating, Morningglory",[13]; 62 g ai/ha,0
same,"Plant response rating, Morningglory",[13]; 125 g ai/ha,10
same,"Plant response rating, Morningglory",[13]; 250 g ai/ha,10
same,"Plant response rating (scale of 0 to 100), Lambsquarters",[14]; [18],25
same,"Plant response rating, Lambsquarters",[14]; 62 g ai/ha,35
same,"Plant response rating, Lambsquarters",[14]; 125 g ai/ha,70
same,"Plant response rating, Lambsquarters",[14]; 250 g ai/ha,60
same,"Plant response rating (scale of 0 to 100), Pigweed",[15]; [18],75
same,"Plant response rating, Pigweed",[15]; 62 g ai/ha,80
same,"Plant response rating, Pigweed",[15]; 125 g ai/ha,80
same,"Plant response rating, Pigweed",[15]; 250 g ai/ha,80
same,"Plant response rating (scale of 0 to 100), Corn",[16]; [18],55
same,"Plant response rating, Corn",[16]; 62 g ai/ha,65
same,"Plant response rating, Corn",[16]; 125 g ai/ha,80
same,"Plant response rating, Corn",[16]; 250 g ai/ha,85
same,"Plant response rating (scale of 0 to 100), Soybean",[17]; [18],0
same,"Plant response rating, Soybean",[17]; 62 g ai/ha,0
same,"Plant response rating, Soybean",[17]; 125 g ai/ha,0
same,"Plant response rating, Soybean",[17]; 250 g ai/ha,15
